Data from patent US20220400680A1, “USE OF ACYLCYANAMIDES OR SALTS THEREOF FOR REGULATING PLANT GROWTH” (Alzchem Trostberg GmbH, priority 2019, published 2022).

Tests used:
[1] = system: Table apple, type Boiken apple (C1); experiment: Greenhouse test, cut apple branches C1 dipped in test solution, bud development stage; assay type: in vivo, Malus domestica; design: key to Bud development stage, apple branches C1: Stage 0: Buds unchanged; Stage 1: Buds slightly swollen, first green tips visible; Stage 2: strongly swollen, green buds; Stage 3: Buds before breaking open, leaf or flower root already visible; Stage 4: Flower buds fully developed, but still closed, white petals already visible. In the case of the grapevine, stage 4 was the unfolding of the first leaves; Stage 5: Flowers fully open or, in the case of grapevine, unfolding of the flower roots (“Gescheine”) on the fully leafed sprouts; conditions: for Good to very good dormancy-breaking effect, apple C1: stage 4 reached or exceeded after 27 days vs negative control; for Dormancy-breaking effect according to the definition, apple C1: stage 4 reached or exceeded after 36 days vs negative control
Description: Greenhouse tests were conducted using cut fruit tree branches placed in water jars and maintained under controlled conditions with temperature regulation at approximately 22° C. and natural lighting. C1: Table Apple, Type Boiken Apple Table apple: Malus domestica type Boiken first described in 1828 in Bremen after Deichvogt Boiken. Apple type for rough locations and for almost every soil suitable scattered fruit type, whereby heavy soils and not too warm locations are required. Tree growth initially strong, later medium. Older crowns become broadly spherical and are loosely branched. Flowering starting medium-late and long lasting, petals large with little pink. Yield starting late (October) and irregular; with long shelf life and pressure resistance. […] The test solutions were prepared directly, i.e. without intermediate preparation of a concentrate. For each of the test substances A-1 to A-13, an aqueous solution of 0.15 mol of the test substance and 0.15 g BreakThru® OE-446 was prepared and filled up to a total of 500 g with water. Of bis-cyanamides A-14 and A-15, 0.075 mol each was filled up to 500 g in an analogous manner. These test solutions (in combination with the above 4 species/types Cx) were given the test numbers Cx-A1 to Cx-A15. […] This was done with the following evaluation scale: • Stage 0: […] Flower buds fully developed, but still closed, white petals already visible. […] Flowers fully open or, in the case of grapevine, unfolding of the flower roots (“[…]”) on the fully leafed sprouts.

[2] = system: Table apple, type Zabergäu-Renette (C2); experiment: Greenhouse test, cut apple branches C2 dipped in test solution, bud development stage; assay type: in vivo, Malus domestica; design: key to Bud development stage, apple branches C2: Stage 0: Buds unchanged; Stage 1: Buds slightly swollen, first green tips visible; Stage 2: strongly swollen, green buds; Stage 3: Buds before breaking open, leaf or flower root already visible; Stage 4: Flower buds fully developed, but still closed, white petals already visible. In the case of the grapevine, stage 4 was the unfolding of the first leaves; Stage 5: Flowers fully open or, in the case of grapevine, unfolding of the flower roots (“Gescheine”) on the fully leafed sprouts
Description: Greenhouse tests were conducted using cut fruit tree branches placed in water jars and maintained under controlled conditions with temperature regulation at approximately 22° C. and natural lighting. C2: Table Apple, Type […] Table apple: Malus domestica type […] first developed in 1885 as a chance seedling in Hausen a.d. Zaber/Baden-Württemberg and initially grown as 'Hausener Graue […]'. No defined storage type; requires heavy soils (loam). Tree growth initially strong with oblique upright leading branches, later medium with flat branches. Crown broad and flat-spherical with flat fruiting wood. Leaves large, broad oval and with clearly separated tip. Triploid type with late and long-lasting flowering. Yield starting early, medium high and somewhat alternate. […] The test solutions were prepared directly, i.e. without intermediate preparation of a concentrate. For each of the test substances A-1 to A-13, an aqueous solution of 0.15 mol of the test substance and 0.15 g BreakThru® OE-446 was prepared and filled up to a total of 500 g with water. Of bis-cyanamides A-14 and A-15, 0.075 mol each was filled up to 500 g in an analogous manner. These test solutions (in combination with the above 4 species/types Cx) were given the test numbers Cx-A1 to Cx-A15. […] This was done with the following evaluation scale: • Stage 0: […] Flower buds fully developed, but still closed, white petals already visible. […] Flowers fully open or, in the case of grapevine, unfolding of the flower roots (“[…]”) on the fully leafed sprouts.

[3] = system: Table cherry, type Burlat (C3); experiment: Greenhouse test, cut cherry branches C3 dipped in test solution, bud development stage; assay type: in vivo, Prunus avium; design: key to Bud development stage, cherry branches C3: Stage 0: Buds unchanged; Stage 1: Buds slightly swollen, first green tips visible; Stage 2: strongly swollen, green buds; Stage 3: Buds before breaking open, leaf or flower root already visible; Stage 4: Flower buds fully developed, but still closed, white petals already visible. In the case of the grapevine, stage 4 was the unfolding of the first leaves; Stage 5: Flowers fully open or, in the case of grapevine, unfolding of the flower roots (“Gescheine”) on the fully leafed sprouts; conditions: for Good to very good dormancy-breaking effect, cherry C3: stage 4 reached or exceeded after 21 days vs negative control; for Dormancy-breaking effect according to the definition, cherry C3: stage 4 reached or exceeded after 27 days vs negative control
Description: Greenhouse tests were conducted using cut fruit tree branches placed in water jars and maintained under controlled conditions with temperature regulation at approximately 22° C. and natural lighting. C3: Table Cherry, Type Burlat Table cherry: Prunus avium type Bigarreau Burlat or […] is a strong-growing somewhat sparse growing sweet cherry tree with horizontal side sprouts. The type has been known since 1930 and is one of the most important types in commercial cultivation. […] Medium but regular yields identify the type as a secondary type for early and dry areas. […] The test solutions were prepared directly, i.e. without intermediate preparation of a concentrate. For each of the test substances A-1 to A-13, an aqueous solution of 0.15 mol of the test substance and 0.15 g BreakThru® OE-446 was prepared and filled up to a total of 500 g with water. Of bis-cyanamides A-14 and A-15, 0.075 mol each was filled up to 500 g in an analogous manner. These test solutions (in combination with the above 4 species/types Cx) were given the test numbers Cx-A1 to Cx-A15. […] This was done with the following evaluation scale: • Stage 0: […] Flower buds fully developed, but still closed, white petals already visible. […] Flowers fully open or, in the case of grapevine, unfolding of the flower roots (“[…]”) on the fully leafed sprouts.

[4] = system: Grape, type Pinot Noir (C4); experiment: Greenhouse test, cut wine sprouts C4 dipped in test solution, bud development stage; assay type: in vivo, Vitis vinifera subsp. vinifera; design: key to Bud development stage, wine sprouts C4: Stage 0: Buds unchanged; Stage 1: Buds slightly swollen, first green tips visible; Stage 2: strongly swollen, green buds; Stage 3: Buds before breaking open, leaf or flower root already visible; Stage 4: Flower buds fully developed, but still closed, white petals already visible. In the case of the grapevine, stage 4 was the unfolding of the first leaves; Stage 5: Flowers fully open or, in the case of grapevine, unfolding of the flower roots (“Gescheine”) on the fully leafed sprouts
Description: Greenhouse tests were conducted using cut fruit tree branches placed in water jars and maintained under controlled conditions with temperature regulation at approximately 22° C. and natural lighting. C4: Grape, Type Pinot Noir Grape: Vitis vinifera subsp. vinifera type Pinot Noir is an important and high quality red wine type that has existed for possibly 2000 years. It is cultivated all over the world because the type produces high quality red wines and has sufficient winter frost resistance. The type requires early and good areas with deep, warm, medium-heavy and fertile soils with good water supply. Pinot Noir produces regular, medium-high to high yields. However, there are a large number of clones that differ in yield, berry size and looseness. […] The test solutions were prepared directly, i.e. without intermediate preparation of a concentrate. For each of the test substances A-1 to A-13, an aqueous solution of 0.15 mol of the test substance and 0.15 g BreakThru® OE-446 was prepared and filled up to a total of 500 g with water. Of bis-cyanamides A-14 and A-15, 0.075 mol each was filled up to 500 g in an analogous manner. These test solutions (in combination with the above 4 species/types Cx) were given the test numbers Cx-A1 to Cx-A15. […] This was done with the following evaluation scale: • Stage 0: […] Flower buds fully developed, but still closed, white petals already visible. […] Flowers fully open or, in the case of grapevine, unfolding of the flower roots (“[…]”) on the fully leafed sprouts.

[5] = T1 (14 d), 0.15 mol (A-14, A-15: 0.075 mol) per 500 g solution
[6] = stage 4 reached or exceeded after 36 days vs negative control

| Structure (SMILES) | Bud development stage, apple branches C1 [1, 5] | Bud development stage, apple branches C1 ([1]; T2 (16 d)) | Bud development stage, apple branches C1 ([1]; T3 (21 d)) | Bud development stage, apple branches C1 ([1]; T4 (27 d)) | Bud development stage, apple branches C1 ([1]; T5 (36 d)) | Bud development stage, apple branches C1 ([1]; T6 (56 d)) | Good to very good dormancy-breaking effect, apple C1 [1] | Dormancy-breaking effect according to the definition, apple C1 [1] | Bud development stage, apple branches C2 [2, 5] | Bud development stage, apple branches C2 ([2]; T2 (16 d)) | Bud development stage, apple branches C2 ([2]; T3 (21 d)) | Bud development stage, apple branches C2 ([2]; T4 (27 d)) | Bud development stage, apple branches C2 ([2]; T5 (36 d)) | Bud development stage, apple branches C2 ([2]; T6 (56 d)) | Bud development stage, cherry branches C3 [3, 5] | Bud development stage, cherry branches C3 ([3]; T2 (16 d)) | Bud development stage, cherry branches C3 ([3]; T3 (21 d)) | Bud development stage, cherry branches C3 ([3]; T4 (27 d)) | Bud development stage, cherry branches C3 ([3]; T5 (36 d)) | Bud development stage, cherry branches C3 ([3]; T6 (56 d)) | also measured |
| --- | --- | --- | --- | --- | --- | --- | --- | --- | --- | --- | --- | --- | --- | --- | --- | --- | --- | --- | --- | --- | --- |
| CCCCCCCCCCCC(=O)NC#N.[Na] [Example A-10, Sodium dodecanoyl cyanamide] | 1 | 2 | 4 | 5 | 5 | 5 | good to very good dormancy-breaking effect | dormancy-breaking effect | 0 | 0 | 0 | 1 | 2 | 4 | 1 | 2 | 4 | 4 | 4 | 5 | Good to very good dormancy-breaking effect, cherry C3 [3]: good to very good dormancy-breaking effect; Dormancy-breaking effect according to the definition, cherry C3 [3]: dormancy-breaking effect; Bud development stage, wine sprouts C4 [4, 5]: 0; Bud development stage, wine sprouts C4 ([4]; T2 (16 d)): 0; Bud development stage, wine sprouts C4 ([4]; T3 (21 d)): 0; Bud development stage, wine sprouts C4 ([4]; T4 (27 d)): 1; Bud development stage, wine sprouts C4 ([4]; T5 (36 d)): 2; Bud development stage, wine sprouts C4 ([4]; T6 (56 d)): 4 |
| N#CNC=O.[Na] [Example A-2, Sodium Formylcyanamide] | 0 | 0 | 4 | 5 | 5 | 5 | good to very good dormancy-breaking effect | dormancy-breaking effect | 0 | 0 | 1 | 3 | 5 | 5 | 1 | 2 | 5 | 5 | 5 | 5 | Dormancy-breaking effect according to the definition, apple C2 [2, 6]: dormancy-breaking effect; Good to very good dormancy-breaking effect, cherry C3 [3]: good to very good dormancy-breaking effect; Dormancy-breaking effect according to the definition, cherry C3 [3]: dormancy-breaking effect; Bud development stage, wine sprouts C4 [4, 5]: 0; Bud development stage, wine sprouts C4 ([4]; T2 (16 d)): 1; Bud development stage, wine sprouts C4 ([4]; T3 (21 d)): 3; Bud development stage, wine sprouts C4 ([4]; T4 (27 d)): 5; Bud development stage, wine sprouts C4 ([4]; T5 (36 d)): 5; Bud development stage, wine sprouts C4 ([4]; T6 (56 d)): 5; Effect compared with cyanamide, wine C4 ([4]; in vivo): equal effect with cyanamide; Good to very good dormancy-breaking effect, wine C4 ([4]; stage 4 reached or exceeded after 27 days vs negative control): good to very good dormancy-breaking effect; Dormancy-breaking effect according to the definition, wine C4 [4, 6]: dormancy-breaking effect |
